From patent publication US8268845B2, “Tetrahydro- and dihydroquinazolinones” (Merck Patent GmbH, priority 2005, dated 2012) come the findings set out here.

Some results are limits rather than exact numbers.

One may read the melting point as the temperature, or range, at which the solid turns liquid.

In turn, `O=c1[nH]c(N2CCNCC2)nc2c1CCCC2` displayed a melting point of 121 °C.
On to `CN1CCN(c2nc3c(c(=O)[nH]2)CCCC3)CC1`, for which the melting point worked out at 210 °C.
Consider `O=c1[nH]c(-c2ccc(Cl)cc2)nc2c1C=CCC2` [formula 6b, 2-(p-Chlorophenyl)-7,8-dihydroquinazolin-4(3H)-one], for which the melting point is over 250 °C.
Compound `O=c1[nH]c(-c2ccccc2F)nc2c1C=CCC2` [formula 6d, 2-(o-Fluorophenyl)-7,8-dihydroquinazolin-4(3H)-one] returned a melting point of 191 °C.
On to `CSc1nc2c(c(=O)[nH]1)C=CCC2` [formula 6g, 2-Methylthio-7,8-dihydroquinazolin-4(3H)-one], for which the melting point was found to be 214 °C.
The compound `O=c1[nH]c(-c2ccccc2)nc2c1CCCC2` [formula 7a, 2-Phenyl-5,6,7,8-tetrahydroquinazolin-4(3H)-one] showed a melting point of 224 °C.
`O=c1[nH]c(-c2ccc(Cl)cc2)nc2c1CCCC2` [formula 7b, 2-(p-Chlorophenyl)-5,6,7,8-tetrahydroquinazolin-4(3H)-one] had a melting point of 255 °C.
`O=c1[nH]c(-c2ccccc2F)nc2c1CCCC2` [formula 7d, 2-(o-Fluorophenyl)-5,6,7,8-tetrahydroquinazolin-4(3H)-one] gave a melting point of 170 °C.
As for `CC1CCc2nc(-c3ccccc3)[nH]c(=O)c2C1` (centres unmarked) [formula 10a, 6-Methyl-2-phenyl-5,6,7,8-tetrahydroquinazolin-4(3H)-one], the figure is 237 °C; as for `CCC1CCc2nc(-c3ccccc3)[nH]c(=O)c2C1` (centres unmarked) [formula 10b, 6-Ethyl-2-phenyl-5,6,7,8-tetrahydroquinazolin-4(3H)-one], 221 °C; as for `CC1=Cc2c(nc(-c3ccccc3)[nH]c2=O)CC1` [formula 11a, 6-Methyl-2-phenyl-7,8-dihydroquinazolin-4(3H)-one], 218 °C.
With `CCC1=Cc2c(nc(-c3ccccc3)[nH]c2=O)CC1` [formula 11b, 6-Ethyl-2-phenyl-7,8-dihydroquinazolin-4(3H)-one], the melting point came out at 198 °C.
Regarding `O=c1[nH]c(N2CCN(Cc3ccccc3)CC2)nc2c1CC(S(=O)(=O)c1ccccc1)CC2` (centres unmarked) [formula 13b, 2-(4-benzylpiperazin-1-yl)-6-Benzenesulfonyl-5,6,7,8-tetrahydroquinazolin-4(3H)-one], the melting point is over 250 °C.
Compound `CN1CCN(c2nc3c(c(=O)[nH]2)CC(S(=O)(=O)c2ccccc2)CC3)CC1` (centres unmarked) [formula 13c, 6-Benzenesulfonyl-2-(4-methylpiperazin-1-yl)-5,6,7,8-tetrahydroquinazolin-4(3H)-one] had a melting point of over 250 °C.
